Data from BindingDB's records for doi:10.1016/j.bmcl.2009.08.014 (Wuxi Pharmatech, 2009).

Test: Antagonist activity at CXCR2 expressed in CHO cells assessed as inhibition of IL-8-induced chemotaxis

| SMILES | IC50 [nM] |
| --- | --- |
| CCN(Nc1c(Nc2cccc(C(=O)N(C)C)c2O)c(=O)c1=O)c1ccc(OC)cc1 [3-(2-(2-ethyl-2-(4-methoxyphenyl)hydrazinyl)-3,4-dioxocyclobut-1-enylamino)-2-hydroxy-N,N-dimethylbenzamide] | 100 |
| CCN(Nc1c(Nc2cccc(C(=O)N(C)C)c2O)c(=O)c1=O)c1ccccn1 [3-(2-(2-ethyl-2-(pyridin-2-yl)hydrazinyl)-3,4-dioxocyclobut-1-enylamino)-2-hydroxy-N,N-dimethylbenzamide] | 75 |
| CCN(Nc1c(Nc2cccc(C(=O)N(C)C)c2O)c(=O)c1=O)C(C)=O [3-(2-(2-acetyl-2-ethylhydrazinyl)-3,4-dioxocyclobut-1-enylamino)-2-hydroxy-N,N-dimethylbenzamide] | 1250 |
| CCN(CC)Nc1c(Nc2cccc(C(=O)N(C)C)c2O)c(=O)c1=O [3-(2-(2,2-diethylhydrazinyl)-3,4-dioxocyclobut-1-enylamino)-2-hydroxy-N,N-dimethylbenzamide] | 46 |
| CCN(Cc1ccc(F)cc1)Nc1c(Nc2cccc(C(=O)N(C)C)c2O)c(=O)c1=O [3-(2-(2-ethyl-2-(4-fluorobenzyl)hydrazinyl)-3,4-dioxocyclobut-1-enylamino)-2-hydroxy-N,N-dimethylbenzamide] | 6340 |
| CCN(Nc1c(Nc2cccc(C(=O)N(C)C)c2O)c(=O)c1=O)c1ccc(F)cc1 [3-(2-(2-ethyl-2-(4-fluorophenyl)hydrazinyl)-3,4-dioxocyclobut-1-enylamino)-2-hydroxy-N,N-dimethylbenzamide] | 840 |
| CCN(Nc1c(Nc2cccc(C(=O)N(C)C)c2O)c(=O)c1=O)C(=O)c1ccc(F)cc1 [3-(2-(2-ethyl-2-(4-fluorobenzoyl)hydrazinyl)-3,4-dioxocyclobut-1-enylamino)-2-hydroxy-N,N-dimethylbenzamide] | 840 |
| CCN(Nc1c(Nc2cccc(C(=O)N(C)C)c2O)c(=O)c1=O)c1ccccc1 [3-(2-(2-ethyl-2-phenylhydrazinyl)-3,4-dioxocyclobut-1-enylamino)-2-hydroxy-N,N-dimethylbenzamide] | 54 |
